A short description of one data set: solvent given as SMILES. The following applies: in C1CCCCC1.
Consider `N#C[Se]CCCCCOc1ccc2ccc(=O)oc2c1`, for which the emission maximum turned out to be 378 nm.

Take `Cc1ccc([B-]2(c3ccc(C)cc3)n3nc(C(F)(F)F)cc3-c3c4ccccc4cc[n+]32)cc1`: the emission maximum stood at 407 nm.

For the molecule `C[Si](C)(C)c1ccc(C#N)c2ccccc12`, the emission maximum amounted to 333 nm.

The molecule `Cc1ccc(C2=C3C=C(I)C=[N+]3[B-](F)(F)n3c2cc(I)c3I)cc1` showed an emission maximum of 577.5 nm.

The data set is the same for the next values; noted with them: in C1CCOC1.
In turn, `N#C[Se]CCCCCOc1ccc2ccc(=O)oc2c1` yielded an emission maximum of 391 nm.

Molecule `Cc1cc(-n2c3ccccc3c3cc(C#N)ccc32)ccc1-c1ccc(S(=O)(=O)c2ccccc2)cc1C` came in with an emission maximum of 369.19 nm.

The molecule `O=C1C2=C(O[B-](F)(F)[n+]3c2ccc2ccccc23)c2ccc(N3CCOCC3)c3cccc1c23` came in with an emission maximum of 545 nm.

In turn, `Cc1ccc(C2=C3C=CC([Se]c4ccccc4)=[N+]3[B-](F)(F)n3c([Se]c4ccccc4)ccc32)cc1` returned an emission maximum of 609 nm.

`CCN(CC)c1ccc2cc(-c3cc(SC)c(C#N)c(=O)o3)c(=O)oc2c1` registered an emission maximum of 558 nm.

Consider `CSc1sc(C(N)=O)c2nnn(C)c(=O)c12`, for which the emission maximum is given as 496 nm.

`COc1ccc(C(=Cc2ccc(C=O)cc2)c2ccc(OC)cc2)cc1`: the emission maximum is on record as 396 nm.

Still in this data set, the particulars now being: in C1COCCO1.
Take `N#C[Se]CCCCCOc1ccc2ccc(=O)oc2c1`: the emission maximum is on record as 386 nm.

With `CCC12C(=C3C(=C4c5ccc(-c6ccc(C(C)=O)cc6)cc5S(=O)(=O)C41CC)C(F)(F)C(F)(F)C3(F)F)c1ccc(-c3ccc(C(C)=O)cc3)cc1S2(=O)=O` (configuration not stated), the emission maximum amounted to 561.95 nm.

Take `c1ccc2sc(-c3ccc(-c4nnc(-c5ccc(-c6nnc(-c7ccc(-c8cc9ccccc9s8)s7)o6)cc5)o4)s3)cc2c1`: the emission maximum came to 397 nm.

Molecule `COC(=O)c1ccc(/C=C2\N=C(c3ccccc3)NC2=O)cc1` gave an emission maximum of 461 nm.

Still in this data set, the particulars now being: in CC#N.
Molecule `O=c1oc2ccc3ccccc3c2nc1-c1ccccc1` had an emission maximum of 475 nm.

`N#C[Se]CCCCCOc1ccc2ccc(=O)oc2c1` displayed an emission maximum of 387 nm.

For `Cc1cc(-n2c3ccccc3c3cc(C#N)ccc32)ccc1-c1ccc(S(=O)(=O)c2ccccc2)cc1C`, the emission maximum was 369.19 nm.

For the molecule `O=C1C2=C(O[B-](F)(F)[n+]3c2ccc2ccccc23)c2ccc(N3CCOCC3)c3cccc1c23`, the emission maximum stood at 553 nm.

For `CCN(CC)c1ccc2cc(-c3cc(SC)c(C#N)c(=O)o3)c(=O)oc2c1`, the emission maximum came out at 578 nm.

As to `c1ccc2sc(-c3ccc(-c4nnc(-c5ccc(-c6nnc(-c7ccc(-c8cc9ccccc9s8)s7)o6)cc5)o4)s3)cc2c1`, the emission maximum came to 399 nm.

As for `CC1(C)C2=C(c3ccc(N(c4ccccc4)c4ccccc4)cc31)P(=O)(c1ccccc1)c1ccccc12` (configuration not stated), the emission maximum is given as 580 nm.

For the molecule `CN(C)c1ccc(-n2c(-c3ccncc3)nc3nccnc32)cc1`, the emission maximum stood at 405 nm.

As for `Cc1cc(C)c2c(c1)nc1c(=O)n(C)c(=O)nc-1n2C`, the emission maximum is on record as 552 nm.

Consider `CSc1sc(C(N)=O)c2nnn(C)c(=O)c12`, for which the emission maximum amounted to 505 nm.

As for `Cc1ccc(C2=C3C=C(I)C=[N+]3[B-](F)(F)n3c2cc(I)c3I)cc1`, the emission maximum was 578 nm.

The same data set, now with this note: in CC(=O)N(C)C.
For the molecule `c1ccc2sc(-c3ccc(-c4nnc(-c5ccc(-c6nnc(-c7ccc(-c8cc9ccccc9s8)s7)o6)cc5)o4)s3)cc2c1`, the emission maximum was 406 nm.

The data set is the same for the next values; noted with them: in CC(C)=O.
On to `CCN(CC)c1ccc2cc(-c3cc(SC)c(C#N)c(=O)o3)c(=O)oc2c1`, for which the emission maximum stood at 573 nm.

On to `CN(C)c1ccc(-c2cc3c(ccc4c([N+](=O)[O-])cccc43)c(=O)o2)cc1`, for which the emission maximum is 530 nm.

Still in this data set, the particulars now being: in CCCCCC.
The molecule `O=c1oc2ccc3ccccc3c2nc1-c1ccccc1` returned an emission maximum of 453 nm.

`COc1ccc2cc(-c3ccc(C(F)(F)F)cc3)oc(=O)c2c1` registered an emission maximum of 397 nm.

Still in this data set, the particulars now being: in CCCCCCC.
Turning to `N#C[Se]CCCCCOc1ccc2ccc(=O)oc2c1`, the emission maximum is 391 nm.

Still in this data set, the particulars now being: in CCCCCCCCCCO
Molecule `c1ccc2sc(-c3ccc(-c4nnc(-c5ccc(-c6nnc(-c7ccc(-c8cc9ccccc9s8)s7)o6)cc5)o4)s3)cc2c1` showed an emission maximum of 389 nm.

Staying with this data set, now noted: in CCCCCCCCO
Consider `COc1ccc2cc(-c3ccc(C(F)(F)F)cc3)oc(=O)c2c1`, for which the emission maximum is recorded as 410 nm.

`c1ccc2sc(-c3ccc(-c4nnc(-c5ccc(-c6nnc(-c7ccc(-c8cc9ccccc9s8)s7)o6)cc5)o4)s3)cc2c1` showed an emission maximum of 399 nm.

Staying with this data set, now noted: in CCCCCCO.
Turning to `c1ccc2sc(-c3ccc(-c4nnc(-c5ccc(-c6nnc(-c7ccc(-c8cc9ccccc9s8)s7)o6)cc5)o4)s3)cc2c1`, the emission maximum is on record as 399 nm.

The same data set, now with this note: in CCCCO.
Turning to `COc1ccc2cc(-c3ccc(C(F)(F)F)cc3)oc(=O)c2c1`, the emission maximum worked out at 411 nm.

Take `c1ccc2sc(-c3ccc(-c4nnc(-c5ccc(-c6nnc(-c7ccc(-c8cc9ccccc9s8)s7)o6)cc5)o4)s3)cc2c1`: the emission maximum amounted to 399 nm.

Still in this data set, the particulars now being: in CCCO.
In the case of `COc1ccc2cc(-c3ccc(C(F)(F)F)cc3)oc(=O)c2c1`, the emission maximum is 410 nm.

Staying with this data set, now noted: in CCO.
As for `CC(C)(C)c1cc(C(C)(C)C)c(-c2nnc(-c3ccc(-n4c5ccccc5c5ccccc54)cc3)o2)c(C(C)(C)C)c1`, the emission maximum came to 432 nm.

Turning to `N#C[Se]CCCCCOc1ccc2ccc(=O)oc2c1`, the emission maximum worked out at 386 nm.

`O=C1C2=C(O[B-](F)(F)[n+]3c2ccc2ccccc23)c2ccc(N3CCOCC3)c3cccc1c23`: the emission maximum was 552 nm.

Molecule `COc1ccc2cc(-c3ccc(C(F)(F)F)cc3)oc(=O)c2c1` displayed an emission maximum of 412 nm.

For the molecule `COc1ccc(-c2c3ccc(=[N+]4CCCCC4)cc-3oc3cc(N4CCCCC4)ccc23)cc1`, the emission maximum came to 582 nm.

With `CCN(C(C)=O)c1cc2c(cc1C)C(c1ccccc1C(=O)O)=C1CCCC(/C=C/C3=[N+](C)c4ccc5ccccc5c4C3(C)C)=C1O2`, the emission maximum was 715 nm.

Consider `N#C/C(=N/Nc1ccc(C#N)cc1)c1nc(-c2ccccc2)cs1`, for which the emission maximum was 486 nm.

`c1ccc2sc(-c3ccc(-c4nnc(-c5ccc(-c6nnc(-c7ccc(-c8cc9ccccc9s8)s7)o6)cc5)o4)s3)cc2c1` showed an emission maximum of 400 nm.

The molecule `CSc1sc(C(N)=O)c2nnn(C)c(=O)c12` registered an emission maximum of 519 nm.

As for `Cc1ccc(C2=C3C=C(I)C=[N+]3[B-](F)(F)n3c2cc(I)c3I)cc1`, the emission maximum turned out to be 582 nm.

Staying with this data set, now noted: in CCOC(C)=O.
For `COc1ccc2cc(-c3ccc(C(F)(F)F)cc3)oc(=O)c2c1`, the emission maximum is listed as 404 nm.

For `CCN(CC)c1ccc2cc(-c3cc(SC)c(C#N)c(=O)o3)c(=O)oc2c1`, the emission maximum is 554 nm.

With `Cc1ccc(C2=C3C=C(I)C=[N+]3[B-](F)(F)n3c2cc(I)c3I)cc1`, the emission maximum stood at 578.5 nm.

Regarding `CN(C)c1ccc(-c2cc3c(ccc4c([N+](=O)[O-])cccc43)c(=O)o2)cc1`, the emission maximum was determined as 624 nm.

The same data set, now with this note: in CN(C)C=O.
As for `CCCCCCCCC1(CCCCCCCC)c2cc(-c3ccc([N+](=O)[O-])cc3)ccc2-c2ccc(-c3ccc([N+](=O)[O-])cc3)cc21`, the emission maximum was found to be 569 nm.

In turn, `N#C[Se]CCCCCOc1ccc2ccc(=O)oc2c1` registered an emission maximum of 396 nm.

`COc1ccc2cc(-c3ccc(C(F)(F)F)cc3)oc(=O)c2c1`: the emission maximum was found to be 411 nm.

Regarding `CCN(CC)c1ccc2cc(-c3cc(SC)c(C#N)c(=O)o3)c(=O)oc2c1`, the emission maximum worked out at 585 nm.
